Reference: US20190151283A1, “NON-STEROIDAL SELECTIVE GLUCOCORTICOID RECEPTOR AGONISTIC MODULATORS (SEGRAMs) AND USES THEREOF” (ASSOCIATION POUR LA RECHERCHE À L'IGBMC (ARI), priority 2017, published 2019)

System: mice
Test: Ovalbumin (OVA)-induced asthma-like allergic lung inflammation
Type: in vivo, mouse
Description: Glucocorticoids have been (Pearlman et al., 1997. Ann Allergy Asthma Immunol. 78(4):356-62), and are still, widely used in asthma therapy. In order to investigate the possible CpdX anti-inflammatory activity in vivo, mice were sensitized and challenged with either ovalbumin (OVA) or house dust mite (HDM) to induce an asthma-like allergic lung inflammation.
Mice were intraperitoneally sensitized with either 50 μg OVA together with alum or with alum alone on D0, D7 and D14. Mice were then subdivided into three groups, and on D19, D20 and D21, they were intranasally (i.n.) challenged with 10 μg OVA. The first and the second group received intranasally 0.5 mg/kg of body weight of Dex or CpdX respectively, while the third group served as a control.
On D22, the lung allergic inflammation was assessed for each mouse by examination of the bronchoalveolar lavage fluid (BAL). The total BAL cells, eosinophils, neutrophils, macrophages and lymphocytes were counted. RNA transcripts were extracted from lung samples and RNA transcripts of IL-1β, IL-6, IL-4, IL-5, IL-10, IL-13, Eotaxin, CCL4 and TNFα were analyzed by q-RT-PCR. Histological (with H&E staining) and immunohistochemical (with eosinophil-specific and neutrophil-specific antibodies) analyses of lung tissues were also carried out.

## COc1ccc(F)cc1C(C)(C)CC(O)(CNc1ccc2c(c1)COC2=O)C(F)(F)F (racemic) [CpdX, 5-[4-(5-fluoro-2-methoxyphenyl)-2-hydroxy-4-methyl-2-(trifluoromethyl)pentylamino]-isobenzofuran-1(3H)-one]
Data not shown
  eosinophils and neutrophils in lung, immunohistochemistry: similarly decreased
Histology of lung paraffin sections
  peribronchiolar and perivascular inflammatory cell infiltration: strongly decreased
Intranasal 0.5 mg/kg on D19-D21, BAL on D22
  number of macrophages in BAL: unchanged
Intranasal 0.5 mg/kg on D19-D21, BAL on D22, vs control group
  total number of BAL cells, eosinophils, neutrophils and lymphocytes: significantly decreased
q-RT-PCR, D22
  expressions of IL-1β, IL-6, IL-4, IL-5, IL-10, IL-13, Eotaxin, CCL4 and TNFα in lung samples: significantly and similarly decreased
